Data as given in patent publication US10174013B2, “Benzimidazole derivatives as kinase inhibitors” (SELVITA S.A., priority 2012, dated 2019).
Structures can show the parent of a compound that is named as a salt. Where two headings read alike, the source gives them in different places.

Key:
[1] = system: HEL92 cells; assay: Growth inhibition, MTS assay, HEL92; type: cell-based, Human; conditions: MTS cell viability, read-out: HEL92 ED50
[2] = target: FLT3wt (Homo sapiens (Human), UniProt P36888); assay: ADP-Glo Kinase Assay, Flt3 wt; type: biochemical; conditions: 1 μM compound; for inhibition at 1 µM: read-out: Flt3wt % INH (1 μM)
Chain of FLT3wt (P36888 27-993): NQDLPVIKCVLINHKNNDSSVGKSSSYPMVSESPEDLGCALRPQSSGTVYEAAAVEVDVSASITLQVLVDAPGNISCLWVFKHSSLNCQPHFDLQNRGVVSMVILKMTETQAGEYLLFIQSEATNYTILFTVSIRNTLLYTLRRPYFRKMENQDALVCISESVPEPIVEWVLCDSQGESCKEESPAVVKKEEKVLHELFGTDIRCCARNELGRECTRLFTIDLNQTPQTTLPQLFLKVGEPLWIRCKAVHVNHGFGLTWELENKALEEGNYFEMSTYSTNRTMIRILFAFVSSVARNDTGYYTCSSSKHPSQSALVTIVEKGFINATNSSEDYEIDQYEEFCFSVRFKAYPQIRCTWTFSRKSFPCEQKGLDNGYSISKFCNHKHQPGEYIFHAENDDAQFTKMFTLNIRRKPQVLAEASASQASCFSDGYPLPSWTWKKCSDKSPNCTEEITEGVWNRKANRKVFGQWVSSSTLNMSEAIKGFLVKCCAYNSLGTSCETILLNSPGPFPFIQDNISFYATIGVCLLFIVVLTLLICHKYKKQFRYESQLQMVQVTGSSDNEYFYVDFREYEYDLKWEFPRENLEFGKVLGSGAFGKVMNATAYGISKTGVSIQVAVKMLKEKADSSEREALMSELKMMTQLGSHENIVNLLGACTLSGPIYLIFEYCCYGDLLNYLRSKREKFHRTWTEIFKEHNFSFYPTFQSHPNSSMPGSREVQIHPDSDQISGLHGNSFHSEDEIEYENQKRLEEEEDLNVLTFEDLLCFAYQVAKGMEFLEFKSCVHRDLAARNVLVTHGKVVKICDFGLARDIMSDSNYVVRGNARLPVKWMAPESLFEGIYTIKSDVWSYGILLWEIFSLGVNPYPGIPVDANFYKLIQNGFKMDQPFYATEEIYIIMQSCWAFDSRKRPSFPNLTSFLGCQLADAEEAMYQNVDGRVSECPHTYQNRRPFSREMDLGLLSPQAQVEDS
Procedure, shortened: (§1)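 ADP-Glo luminescent ADP detection of human kinase activity in 5 mM MOPS pH 7.5, 5 mM MgCl2, 0.4 mM EDTA, 1.5 mM DTT. ATP at each kinase's apparent Km; compounds diluted to 1000 nM in assay buffer. Percent inhibition from normalised luminescence.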

[3] = system: SW-480 cells; assay: Growth inhibition, MTS assay, SW-480; type: cell-based, Human; conditions: 72 hours, MTS cell viability, read-out: SW-480 ED50
[4] = target: CDK2/E (Homo sapiens (Human), UniProt P24941); assay: ADP-Glo Kinase Assay, CDK2/E; type: biochemical; conditions: 1 μM compound; for inhibition at 1 µM: read-out: CDK2/E % INH (1 μM)
Procedure, shortened: as §1

[5] = target: DYRK1 (Homo sapiens (Human), UniProt Q13627); assay: ADP-Glo Kinase Assay, DYRK1; type: biochemical; conditions: 1 μM compound; for inhibition at 1 µM: read-out: DYRK1A % INH (1 μM)
Procedure, shortened: as §1

[6] = target: hERG potassium channel (Homo sapiens (Human), UniProt Q12809); assay: hERG automated patch clamp assay (QPatch HT)
Chain of hERG potassium channel (Q12809 whole entry): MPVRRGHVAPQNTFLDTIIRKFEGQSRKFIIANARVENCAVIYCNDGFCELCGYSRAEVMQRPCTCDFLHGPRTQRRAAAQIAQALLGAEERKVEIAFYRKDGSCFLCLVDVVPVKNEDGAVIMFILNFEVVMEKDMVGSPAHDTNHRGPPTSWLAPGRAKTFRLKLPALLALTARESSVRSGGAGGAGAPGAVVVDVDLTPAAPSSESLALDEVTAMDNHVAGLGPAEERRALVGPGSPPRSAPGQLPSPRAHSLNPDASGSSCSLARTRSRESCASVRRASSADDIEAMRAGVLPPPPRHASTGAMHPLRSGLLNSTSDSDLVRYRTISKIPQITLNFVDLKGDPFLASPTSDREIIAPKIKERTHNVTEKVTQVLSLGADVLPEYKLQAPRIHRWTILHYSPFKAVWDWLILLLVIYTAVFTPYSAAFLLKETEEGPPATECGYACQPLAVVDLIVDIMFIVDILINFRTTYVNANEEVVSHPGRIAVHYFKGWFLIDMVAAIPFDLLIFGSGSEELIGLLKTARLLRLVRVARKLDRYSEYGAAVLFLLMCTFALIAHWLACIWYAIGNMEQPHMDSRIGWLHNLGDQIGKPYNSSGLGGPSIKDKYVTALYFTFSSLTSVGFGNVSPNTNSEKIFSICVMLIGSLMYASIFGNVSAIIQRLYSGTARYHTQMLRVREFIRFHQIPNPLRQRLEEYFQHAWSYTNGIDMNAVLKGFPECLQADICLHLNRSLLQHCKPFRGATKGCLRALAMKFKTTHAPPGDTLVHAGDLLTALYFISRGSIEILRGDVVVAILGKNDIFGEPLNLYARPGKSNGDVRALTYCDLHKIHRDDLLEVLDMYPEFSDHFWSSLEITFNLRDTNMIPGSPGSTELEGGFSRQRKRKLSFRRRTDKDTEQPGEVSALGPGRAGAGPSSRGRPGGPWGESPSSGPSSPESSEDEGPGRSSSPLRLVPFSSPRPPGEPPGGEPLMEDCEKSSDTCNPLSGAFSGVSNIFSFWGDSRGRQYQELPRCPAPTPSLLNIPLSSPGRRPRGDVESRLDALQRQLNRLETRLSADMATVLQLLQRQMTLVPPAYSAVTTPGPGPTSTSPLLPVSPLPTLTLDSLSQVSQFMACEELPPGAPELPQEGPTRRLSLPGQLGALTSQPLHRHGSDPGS
Procedure: The hERG (human ether-A-go-go-related gene) channel corresponds to an important anti-target for potential new drugs since its inhibition may lead to sudden death. In order to establish whether the compounds of the present invention act on hERG, the following experiment was carried out.
The in vitro effects of the compounds indicated in Table 5 on the hERG potassium channel current (a surrogate for Iκr, the rapidly activating, delayed rectifier cardiac potassium current) expressed in mammalian cells were evaluated at room temperature using the QPatch HT® (Sophion Bioscience A/S, Denmark), an automatic parallel patch clamp system. Each compound indicated in Table 5 was evaluated at 0.1, 1, 3, 10 and 30 μM with each concentration tested in a minimum of two cells (n≥2). The duration of exposure to each compound concentration was 3 minutes.

[7] = system: HepG2 cells; assay: Growth inhibition, MTS assay, HepG2; type: cell-based, Human; conditions: MTS cell viability, read-out: HepG2 ED50
[8] = system: Jeko-1 cells; assay: Growth inhibition, MTS assay, Jeko-1; type: cell-based, Human; conditions: 72 hours, MTS cell viability, read-out: Jeko-1 ED50
Description: (§2) The following cell lines, were obtained and used in tests as outlined below: • Human myelomonocytic, biphenotypic leukemia MV4-11 cells (harboring a Flt3-ITD mutation); • Human Acute Myeloid Leukemia MOLM16 cells; • Human Acute Myeloid Leukemia MOLM13 cells (harboring a Flt3-ITD mutation); • Human Myeloid Leukemia KG-1 cells; • Human erythroleukemia HEL92 cells; • Human mantle cell lymphoma Jeko-1 cells; • Human hepatocellular carcinoma HepG2 cells; and • Human colon adenocarcinoma SW-480 cells.
(§3) The assays were carried out according to the following protocol, which is described as an example for the MV4-11 cells:
(§4) Ten thousand MV4-11 cells were inoculated into each well of a 96-well microplate (manufactured by Corning Corp.) using Iscove's MDM medium (culture medium) containing 10% fetal calf serum (FCS). The same day, a dimethyl sulfoxide (DMSO) solution of each test compound prepared in a concentration of 10 mmol/L was further diluted with DMSO to the desired concentrations (0.1, 0.5, 1, 2.5, 5 and 10 micromol/L), and the diluted solution was added to each well. The individual wells were further cultured in 5% carbon dioxide at 37° C. for 72 hours. […] Briefly, 10 μl MTS (3-(4,5-Dimethyl-2-thiazolyl)-5-(carboxymethoxyphenyl)-2-(4-sulfophenyl)-2H-tetrazolium was added to each well, and culturing was performed in 5% carbon dioxide at 37° C. for 2 hours. After this incubation and using a microplate spectrophotometer (Synergy 2 multi-mode microplate reader (BioTek)), the absorbance of each well was measured at 490 nm. The value for cells not incubated with a test compound was designated as 100%. By comparing these values with the absorbance difference obtained at the well in which each test compound was added, the cell viability (% viability) after treatment with the test compound was calculated.

[9] = system: MV4-11 cells; assay: Growth inhibition, MTS assay, MV4-11; type: cell-based, Human; conditions: MTS cell viability, read-out: MV4-11 ED50
[10] = target: Pim-1 (Homo sapiens (Human), UniProt P11309); assay: ADP-Glo Kinase Assay, Pim-1; type: biochemical; conditions: 1 μM compound; for inhibition at 1 µM: read-out: Pim-1 % INH (1 μM)
Chain of Pim-1 (P11309 whole entry): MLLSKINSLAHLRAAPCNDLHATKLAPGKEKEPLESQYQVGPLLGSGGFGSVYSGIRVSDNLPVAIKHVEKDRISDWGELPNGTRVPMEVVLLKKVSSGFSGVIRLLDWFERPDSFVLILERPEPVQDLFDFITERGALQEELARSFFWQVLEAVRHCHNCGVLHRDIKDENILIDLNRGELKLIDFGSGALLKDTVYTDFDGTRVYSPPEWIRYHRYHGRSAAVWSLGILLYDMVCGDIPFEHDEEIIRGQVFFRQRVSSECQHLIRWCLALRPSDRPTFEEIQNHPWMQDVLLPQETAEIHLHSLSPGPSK
Procedure, shortened: as §1

[11] = target: Pim-2 (Homo sapiens (Human), UniProt Q9P1W9); assay: ADP-Glo Kinase Assay, Pim-2; type: biochemical; conditions: 1 μM compound
Chain of Pim-2 (Q9P1W9 whole entry): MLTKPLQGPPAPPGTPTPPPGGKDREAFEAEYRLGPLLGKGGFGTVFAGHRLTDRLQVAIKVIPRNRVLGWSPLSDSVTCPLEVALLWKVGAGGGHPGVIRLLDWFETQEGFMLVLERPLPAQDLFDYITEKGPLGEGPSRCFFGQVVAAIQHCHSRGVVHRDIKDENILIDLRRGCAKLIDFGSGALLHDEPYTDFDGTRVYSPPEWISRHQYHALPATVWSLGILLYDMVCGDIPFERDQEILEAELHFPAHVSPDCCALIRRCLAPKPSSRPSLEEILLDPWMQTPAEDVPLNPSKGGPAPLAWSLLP
Procedure, shortened: as §1

[12] = system: MV4-11 xenograft; assay: MV4-11 xenograft in immunocompromised mice; type: in vivo; conditions: MV4-11 xenograft, oral
Description: Several compounds of the present invention have been studied in a xenograft in mice, an in vivo tumor transplantation model used to investigate the factors involved in malignant transformation, invasion and metastasis, as well as to examine response to therapy. For the purpose of acceptance of donor leukemic cells (MV4-11 or MOLM16 cells), immunocompromised mice were used, namely particularly severely compromised immunodeficient mice (NOD/scid, SCID/beige). When tumors developed size of approx. 50-200 mm^3, the compounds as indicated below in Tables 3 and 3a were administered orally every day for 2-3 weeks, in once a day (QD) or twice a day (BID) schedule. During the course of the experiment, the mice were monitored and the following two parameters were measured: the tumor growth inhibition (TGI) factor as a measure of therapeutic efficacy and the body weight change (ΔBW) factor as a measure of possible compound toxicity. The results are depicted in Tables 3 and 3a.
Next, compound 26A was evaluated in a xenograft study of acute myeloid leukemia (MV-4-11), alone or in a combinational treatment with Cytarabine in vivo (Table 3b; FIG. 6). Compound 26A was tested in two doses (50 and 25 mg/kg) and administered twice a day (BID); Cytarabine was administered at dose of 50 mg/kg three times in a week (TIW). During 15 days of compound administration dose-dependent anti-cancer activity of compound 26A (administered alone) was shown. Tumor growth inhibition reached −82% and −77%, respectively.

[13] = target: Pim-3 (Homo sapiens (Human), UniProt Q86V86); assay: ADP-Glo Kinase Assay, Pim-3; type: biochemical; conditions: 1 μM compound
Procedure, shortened: as §1

[14] = system: MOLM16 cells; assay: Growth inhibition, MTS assay, MOLM16; type: cell-based, Human; conditions: MTS cell viability, read-out: MOLM 16 ED50
Description: as §2, §3, §4

Row | Compound | inhibition at 1 µM [2] [%] | inhibition at 1 µM [4] [%] | inhibition at 1 µM [5] [%] | IC50 ([14]; Homo sapiens, MOLM16, 72 h) [nM] | IC50 ([7]; Homo sapiens, HepG2, 72 h) [nM] | IC50 ([9]; Homo sapiens, MV4-11, 72 h) [nM] | inhibition at 1 µM [10] [%] | further results
1 | CC(C)n1c(N2CCC[C@H](N)C2)nc2c([N+](=O)[O-])c(Br)c(Br)cc21 [Example 1AP] |  |  |  |  |  |  |  | IC50 ([1]; 72 hours): 2400 nM; Flt3wt % INH (1 μM) [2]: 56%; IC50 [3]: 2400 nM; CDK2/E % INH (1 μM) [4]: 13%; DYRK1A % INH (1 μM) [5]: 70%; IC50 [6]: 1820 nM; IC50 ([7]; 72 hours): 900 nM; IC50 [8]: 1300 nM; IC50 ([9]; 72 hours): 300 nM; Pim-1 % INH (1 μM) [10]: >95%; Pim-2 % INH (1 μM) [11]: 80%; TGI (tumor growth inhibition) ([12]; 150 mg/Kg QD): 99%; ΔBW (body weight change) ([12]; 150 mg/Kg QD): 11.7%; TGI (tumor growth inhibition) ([12]; doses as in Table 3): exceeding 97%; Pim-3 % INH (1 μM) [13]: 93%
2 | N[C@@H]1CCN(c2nc3c([N+](=O)[O-])c(Br)c(Br)cc3n2C2CCC2)C1 [Example 1DC] |  |  |  |  |  |  |  | IC50 ([1]; 72 hours): 2000 nM; Flt3wt % INH (1 μM) [2]: 52%; DYRK1A % INH (1 μM) [5]: >95%; IC50 ([14]; 72 hours): 160 nM; IC50 ([7]; 72 hours): 1000 nM; IC50 ([9]; 72 hours): 200 nM; Pim-1 % INH (1 μM) [10]: >95%
3 | CC(C)n1c(N2CCC(N)CC2)nc2c(C#N)c(Br)c(Br)cc21 [Example 1DT] | < 5 | 46 | 34 | 300 | 1000 | 1500 | > 95 | 
4 | CCn1c(NC2CCC(N)CC2)nc2c(C#N)c(Br)c(Br)cc21 (stereo not shown) [Example 1DV] | < 5 | 50 | 95 | 1500 | 2900 | 2100 | > 95 | 
5 | CN[C@@H]1CCN(c2nc3c(C#N)c(Br)c(Br)cc3n2C(C)C)C1 [Example 1DW] | 8 | 48 |  | 300 |  | 5100 | > 95 | 
6 | NC(=O)Cn1c(N2CCNCC2)nc2c([N+](=O)[O-])c(Br)c(Br)cc21 [Example 2L, 2-[5,6-dibromo-4-nitro-2-(piperazin-1-yl)-1H-1,3-benzodiazol-1-yl]acetamide] |  |  |  | 3100 |  | 6100 | 67 | 
7 | NCCCn1c(N2CC[C@@H](N)C2)nc2c([N+](=O)[O-])c(Br)c(Br)cc21 [Example 3A, (3R)-1-[1-(3-aminopropyl)-5,6-dibromo-4-nitro-1H-1,3-benzodiazol-2-yl]pyrrolidin-3-amine] | < 5 | 20 |  | 1900 | 6300 | 2300 | > 95 | 
8 | NCCn1c(N2CC[C@H](N)C2)nc2c([N+](=O)[O-])c(Br)c(Br)cc21 [Example 3B, (3S)-1-[1-(2-aminoethyl)-5,6-dibromo-4-nitro-1H-1,3-benzodiazol-2-yl]pyrrolidin-3-amine] |  |  | 18 | 1500 |  | 1300 | > 95 | 
9 | CCn1c(N2CCNCC2)nc2c(C#N)c(Br)c(Br)cc21 [Example 8A, 5,6-dibromo-1-ethyl-2-(piperazin-1-yl)-1H-1,3-benzodiazole-4-carbonitrilehydrochloride] | 11 | < 5 | 46 |  | 1700 | 1300 | 82 | IC50 ([1]; Homo sapiens, 72 h): 4800 nM; IC50 ([3]; Homo sapiens, SW480): 4700 nM; IC50 [6]: 770 nM; IC50 ([8]; Homo sapiens, JeKo-1): 1400 nM; inhibition at 1 µM ([11]; read-out: Pim-2 % INH (1 μM)): 14%; inhibition at 1 µM ([13]; read-out: Pim-3 % INH (1 μM)): 92%
10 | CC(C)n1c(N2CCNCC2)nc2c([N+](=O)[O-])c(C(F)(F)F)c(Br)cc21 [Example 9B, 6-bromo-4-nitro-2-(piperazin-1-yl)-1-(propan-2-yl)-5-(trifluoromethyl)-1H-1,3-benzodiazole] |  |  | 33 | 7290 | 2700 | 5900 | 59 | 
11 | CC(C)n1c(N2C[C@H]3C[C@@H]2CN3)nc2c([N+](=O)[O-])c(Br)c(Br)cc21 [Example 22AE, 5,6-dibromo-2-[(1R,4R)-2,5-diazabicyclo[2.2.1]heptan-2-yl]-4-nitro-1-(propan-2-yl)-1H-1,3-benzodiazole] |  |  | 95 | 2800 | > 10000 | 2700 | 76 | 
